These results are taken from patent US20220009920A1 (GB005, Inc., priority 2020, published 2022).

As a reminder, the inhibition is the change of the read-out against control, counted positive when it falls.

Holding throughout (assay): Large panel kinase profiling
Common to all, as to type: biochemical
What all share (details): 1 μM test article, 1 mM ATP

Experiment [1] addresses T1, MYLK2 (Homo sapiens, UniProt Q9H1R3).
T1 construct: AssayQuant Technologies, Inc. (assay service)
In a few lines: (§1)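 Reactions contain 1 mM ATP and 1 μM test article; the CSox peptide sensor reports phosphorylation as fluorescence gain. Temperature is held at 30° C. while signal (360 nm excitation, 485 nm emission) is recorded every 1 min.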

In experiment [2] the target is T2, TAOK2 (Homo sapiens, UniProt Q9UL54).
T2 construct: AssayQuant Technologies, Inc. (contract assay)
T2 sequence (Q9UL54 1-1235): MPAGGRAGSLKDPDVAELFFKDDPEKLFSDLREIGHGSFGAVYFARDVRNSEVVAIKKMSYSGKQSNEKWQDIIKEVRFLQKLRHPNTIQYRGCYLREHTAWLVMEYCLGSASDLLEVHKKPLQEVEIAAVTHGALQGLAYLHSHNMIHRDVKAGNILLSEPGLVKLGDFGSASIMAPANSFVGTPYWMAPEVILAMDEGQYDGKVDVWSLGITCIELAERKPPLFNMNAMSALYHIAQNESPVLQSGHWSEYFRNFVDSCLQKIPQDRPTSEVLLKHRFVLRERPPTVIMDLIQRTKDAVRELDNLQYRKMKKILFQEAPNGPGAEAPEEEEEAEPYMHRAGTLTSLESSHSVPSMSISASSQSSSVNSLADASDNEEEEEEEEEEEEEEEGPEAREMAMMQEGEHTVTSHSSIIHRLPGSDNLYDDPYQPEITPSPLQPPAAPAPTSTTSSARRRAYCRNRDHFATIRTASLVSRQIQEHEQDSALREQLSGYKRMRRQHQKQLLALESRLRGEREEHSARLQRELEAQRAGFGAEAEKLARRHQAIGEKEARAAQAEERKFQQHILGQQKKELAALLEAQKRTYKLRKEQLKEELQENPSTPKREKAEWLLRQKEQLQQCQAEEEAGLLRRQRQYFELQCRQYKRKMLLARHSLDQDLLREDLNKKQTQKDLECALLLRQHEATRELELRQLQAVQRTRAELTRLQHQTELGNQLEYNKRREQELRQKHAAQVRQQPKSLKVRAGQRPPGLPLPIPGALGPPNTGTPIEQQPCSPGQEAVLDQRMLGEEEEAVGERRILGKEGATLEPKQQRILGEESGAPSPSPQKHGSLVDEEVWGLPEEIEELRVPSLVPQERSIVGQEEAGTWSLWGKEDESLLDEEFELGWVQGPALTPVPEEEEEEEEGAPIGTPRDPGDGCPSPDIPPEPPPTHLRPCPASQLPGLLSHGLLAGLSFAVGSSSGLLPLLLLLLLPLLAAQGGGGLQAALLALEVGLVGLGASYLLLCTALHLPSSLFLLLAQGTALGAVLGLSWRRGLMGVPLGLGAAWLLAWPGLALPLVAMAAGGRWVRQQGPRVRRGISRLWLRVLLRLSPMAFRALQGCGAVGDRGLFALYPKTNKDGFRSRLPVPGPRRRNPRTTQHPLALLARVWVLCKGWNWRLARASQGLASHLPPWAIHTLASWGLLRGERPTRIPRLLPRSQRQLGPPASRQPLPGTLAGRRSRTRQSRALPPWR
A digest of the protocol: as §1

Experiment [3] has as its target T3, MARK4 (Homo sapiens, UniProt Q96L34).
T3 construct: AssayQuant Technologies, Inc. (assay service)
T3 sequence (Q96L34 1-752): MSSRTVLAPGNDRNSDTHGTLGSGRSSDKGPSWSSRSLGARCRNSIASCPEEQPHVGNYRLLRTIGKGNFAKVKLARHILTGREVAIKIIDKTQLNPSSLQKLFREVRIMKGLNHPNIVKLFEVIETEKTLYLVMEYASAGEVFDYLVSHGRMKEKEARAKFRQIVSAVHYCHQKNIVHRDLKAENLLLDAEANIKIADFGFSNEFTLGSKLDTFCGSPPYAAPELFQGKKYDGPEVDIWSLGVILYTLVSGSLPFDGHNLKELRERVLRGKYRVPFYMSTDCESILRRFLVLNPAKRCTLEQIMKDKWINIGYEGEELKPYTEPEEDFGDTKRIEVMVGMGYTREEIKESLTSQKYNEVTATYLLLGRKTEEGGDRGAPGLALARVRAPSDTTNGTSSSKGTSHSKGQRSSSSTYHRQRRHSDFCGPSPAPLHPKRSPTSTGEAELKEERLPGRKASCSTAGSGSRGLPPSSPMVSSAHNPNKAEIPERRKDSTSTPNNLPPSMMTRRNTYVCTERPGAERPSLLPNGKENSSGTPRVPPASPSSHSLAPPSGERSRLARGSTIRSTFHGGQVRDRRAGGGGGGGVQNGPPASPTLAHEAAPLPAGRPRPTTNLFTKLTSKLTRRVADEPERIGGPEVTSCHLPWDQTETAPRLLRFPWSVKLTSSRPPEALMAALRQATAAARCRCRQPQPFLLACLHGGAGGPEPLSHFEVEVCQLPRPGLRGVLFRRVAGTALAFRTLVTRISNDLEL
A digest of the protocol: as §1

For `C=CC(=O)N1CCCC(c2c(F)cc(C(N)=O)c3[nH]c4c(c23)CCCCC4)C1` (single isomer, unassigned) [Compound 5-6], the inhibition at 1 µM in experiment [1] was 16.8%; in experiment [2], -14.5%; in experiment [3] it was 8.1%.
Turning to `C=CC(=O)N1CCC[C@@H](c2c(F)cc(C(N)=O)c3[nH]c4c(c23)CC2(CC4)CC2)C1` [Compound 6-2, (S)-5-(1-acryloylpiperidin-3-yl)-6-fluoro-1,2,4,9-tetrahydrospiro[carbazole-3,1′-cyclopropane]-8-carboxamide], the inhibition at 1 µM in experiment [1] is -28.4%; in experiment [2], -24.8%; in experiment [3] it was -10.2%.
In the case of `C=CC(=O)N1CCC[C@@H](c2c(F)cc(C(N)=O)c3[nH]c4c(c23)CCC4)C1` [Compound 10-2, (S)-8-(1-acryloylpiperidin-3-yl)-7-fluoro-1,2,3,4-tetrahydrocyclo-penta[b]indole-5-carboxamide], the values for the inhibition at 1 µM in experiment [1], in experiment [2] and in experiment [3] were -33.6%, 11.4% and 1.7%, respectively.
